Laboratory results: the NIST ThermoML archive (doi:10.1016/j.fluid.2019.05.003)

Assay: xn = mol fraction of the nth substance listed
Details: 101 kPa, Liquid; for viscosity: Falling or rolling sphere viscometry; for mass density: Vibrating tube method

CC[n+]1ccccc1.[Br-] [1-ethylpyridinium bromide] + O
Details | mass density [kg/m3] | viscosity [mPa·s]
298.15 K, x1 = 0.027 | 1069.4 | 1.203
298.15 K, x1 = 0.049 | 1113.8 | 1.483
298.15 K, x1 = 0.063 | 1139.5 | 1.75
298.15 K, x1 = 0.086 | 1174.3 | 2.18
298.15 K, x1 = 0.101 | 1194.1 | 2.507
298.15 K, x1 = 0.147 | 1243.9 | 3.769
298.15 K, x1 = 0.184 | 1274.6 | 5.028
298.15 K, x1 = 0.213 | 1294.5 | 6.298
298.15 K, x1 = 0.25 | 1315.3 | 8.734
298.15 K, x1 = 0.299 | 1337 | 10.5
298.15 K, x1 = 0.341 | 1352.3 | 13.33
298.15 K, x1 = 0.401 | 1370.9 | 19.65
298.15 K, x1 = 0.451 | 1381.1 | 25.82
303.15 K, x1 = 0.027 | 1067.4 | 1.071
303.15 K, x1 = 0.049 | 1111.4 | 1.339
303.15 K, x1 = 0.063 | 1137 | 1.554
303.15 K, x1 = 0.086 | 1171.6 | 1.913
303.15 K, x1 = 0.101 | 1191.2 | 2.215
303.15 K, x1 = 0.147 | 1240.8 | 3.293
303.15 K, x1 = 0.184 | 1271.3 | 4.402
303.15 K, x1 = 0.213 | 1291.1 | 5.427
303.15 K, x1 = 0.25 | 1311.9 | 7.646
303.15 K, x1 = 0.299 | 1333.6 | 8.868
303.15 K, x1 = 0.341 | 1348.8 | 11.27
303.15 K, x1 = 0.401 | 1367.4 | 16.67
303.15 K, x1 = 0.451 | 1378 | 21.6
308.15 K, x1 = 0.027 | 1065.2 | 0.969
308.15 K, x1 = 0.049 | 1109 | 1.207
308.15 K, x1 = 0.063 | 1134.3 | 1.393
308.15 K, x1 = 0.086 | 1168.7 | 1.728
308.15 K, x1 = 0.101 | 1188.2 | 1.966
308.15 K, x1 = 0.147 | 1237.6 | 2.911
308.15 K, x1 = 0.184 | 1268 | 3.821
308.15 K, x1 = 0.213 | 1287.7 | 4.737
308.15 K, x1 = 0.25 | 1308.5 | 6.664
308.15 K, x1 = 0.299 | 1330.2 | 7.711
308.15 K, x1 = 0.341 | 1345.4 | 9.653
308.15 K, x1 = 0.401 | 1364 | 14.3
308.15 K, x1 = 0.451 | 1374.6 | 18.22
313.15 K, x1 = 0.027 | 1062.8 | 0.882
313.15 K, x1 = 0.049 | 1106.4 | 1.093
313.15 K, x1 = 0.063 | 1131.6 | 1.26
313.15 K, x1 = 0.086 | 1165.8 | 1.565
313.15 K, x1 = 0.101 | 1185.2 | 1.768
313.15 K, x1 = 0.147 | 1234.3 | 2.591
313.15 K, x1 = 0.184 | 1264.6 | 3.38
313.15 K, x1 = 0.213 | 1284.3 | 4.172
313.15 K, x1 = 0.25 | 1305 | 5.814
313.15 K, x1 = 0.299 | 1326.7 | 6.713
313.15 K, x1 = 0.341 | 1341.9 | 8.366
313.15 K, x1 = 0.401 | 1360.5 | 12.27
313.15 K, x1 = 0.451 | 1371.1 | 15.47
318.15 K, x1 = 0.027 | 1061 | 0.808
318.15 K, x1 = 0.049 | 1103.7 | 1.004
318.15 K, x1 = 0.063 | 1128.8 | 1.146
318.15 K, x1 = 0.086 | 1162.8 | 1.414
318.15 K, x1 = 0.101 | 1182.1 | 1.599
318.15 K, x1 = 0.147 | 1230.9 | 2.321
318.15 K, x1 = 0.184 | 1261.3 | 3.012
318.15 K, x1 = 0.213 | 1280.9 | 3.702
318.15 K, x1 = 0.25 | 1301.6 | 5.096
318.15 K, x1 = 0.299 | 1323.3 | 5.898
318.15 K, x1 = 0.341 | 1338.5 | 7.312
318.15 K, x1 = 0.401 | 1357.1 | 10.62
318.15 K, x1 = 0.451 | 1367.7 | 13.29
323.15 K, x1 = 0.027 | 1058.9 | 0.744
323.15 K, x1 = 0.049 | 1100.6 | 0.92
323.15 K, x1 = 0.063 | 1125.8 | 1.047
323.15 K, x1 = 0.086 | 1159.7 | 1.287
323.15 K, x1 = 0.101 | 1179 | 1.456
323.15 K, x1 = 0.147 | 1227.7 | 2.096
323.15 K, x1 = 0.184 | 1257.9 | 2.702
323.15 K, x1 = 0.213 | 1277.5 | 3.309
323.15 K, x1 = 0.25 | 1298.1 | 4.482
323.15 K, x1 = 0.299 | 1319.8 | 5.226
323.15 K, x1 = 0.341 | 1335 | 6.446
323.15 K, x1 = 0.401 | 1353.7 | 9.272
323.15 K, x1 = 0.451 | 1364.3 | 11.53
328.15 K, x1 = 0.027 | 1056.7 | 0.695
328.15 K, x1 = 0.049 | 1097.6 | 0.846
328.15 K, x1 = 0.063 | 1122.7 | 0.961
328.15 K, x1 = 0.086 | 1156.6 | 1.18
328.15 K, x1 = 0.101 | 1175.8 | 1.332
328.15 K, x1 = 0.147 | 1224.4 | 1.9
328.15 K, x1 = 0.184 | 1254.4 | 2.439
328.15 K, x1 = 0.213 | 1274 | 2.977
328.15 K, x1 = 0.25 | 1294.7 | 3.973
328.15 K, x1 = 0.299 | 1316.3 | 4.663
328.15 K, x1 = 0.341 | 1331.6 | 5.733
328.15 K, x1 = 0.401 | 1350.2 | 8.204
328.15 K, x1 = 0.451 | 1360.8 | 10.13
333.15 K, x1 = 0.027 | 1054.6 | 0.644
333.15 K, x1 = 0.049 | 1095.3 | 0.787
333.15 K, x1 = 0.063 | 1119.5 | 0.889
333.15 K, x1 = 0.086 | 1153.8 | 1.088
333.15 K, x1 = 0.101 | 1172.5 | 1.222
333.15 K, x1 = 0.147 | 1221 | 1.737
333.15 K, x1 = 0.184 | 1251 | 2.216
333.15 K, x1 = 0.213 | 1270.6 | 2.698
333.15 K, x1 = 0.25 | 1291.2 | 3.554
333.15 K, x1 = 0.299 | 1312.9 | 4.186
333.15 K, x1 = 0.341 | 1328.1 | 5.129
333.15 K, x1 = 0.401 | 1346.8 | 7.29
333.15 K, x1 = 0.451 | 1357.4 | 8.99
338.15 K, x1 = 0.027 | 1052.4 | 0.612
338.15 K, x1 = 0.049 | 1092.6 | 0.734
338.15 K, x1 = 0.063 | 1116.8 | 0.825
338.15 K, x1 = 0.086 | 1150.9 | 1.006
338.15 K, x1 = 0.101 | 1169.1 | 1.118
338.15 K, x1 = 0.147 | 1217.5 | 1.582
338.15 K, x1 = 0.184 | 1247.5 | 2.019
338.15 K, x1 = 0.213 | 1267.1 | 2.42
338.15 K, x1 = 0.25 | 1287.7 | 3.118
338.15 K, x1 = 0.299 | 1309.4 | 3.788
338.15 K, x1 = 0.341 | 1324.7 | 4.616
338.15 K, x1 = 0.401 | 1343.4 | 6.5
338.15 K, x1 = 0.451 | 1354 | 8.008
343.15 K, x1 = 0.027 | 1050.3 | 0.58
343.15 K, x1 = 0.049 | 1089.9 | 0.689
343.15 K, x1 = 0.063 | 1113.8 | 0.771
343.15 K, x1 = 0.086 | 1147.9 | 0.941
343.15 K, x1 = 0.101 | 1166.3 | 1.045
343.15 K, x1 = 0.147 | 1214 | 1.465
343.15 K, x1 = 0.184 | 1244 | 1.855
343.15 K, x1 = 0.213 | 1263.5 | 2.245
343.15 K, x1 = 0.25 | 1284.2 | 2.805
343.15 K, x1 = 0.299 | 1305.9 | 3.416
343.15 K, x1 = 0.341 | 1321.2 | 4.159
343.15 K, x1 = 0.401 | 1339.9 | 6.011
343.15 K, x1 = 0.451 | 1350.6 | 7.3
348.15 K, x1 = 0.027 | 1048.2 | 0.549
348.15 K, x1 = 0.049 | 1087.2 | 0.649
348.15 K, x1 = 0.063 | 1110.9 | 0.724
348.15 K, x1 = 0.086 | 1144.9 | 0.886
348.15 K, x1 = 0.101 | 1163.2 | 0.982
348.15 K, x1 = 0.147 | 1211.1 | 1.355
348.15 K, x1 = 0.184 | 1240.4 | 1.706
348.15 K, x1 = 0.213 | 1260 | 2.06
348.15 K, x1 = 0.25 | 1280.6 | 2.589
348.15 K, x1 = 0.299 | 1302.4 | 3.124
348.15 K, x1 = 0.341 | 1317.7 | 3.785
348.15 K, x1 = 0.401 | 1336.5 | 5.338
348.15 K, x1 = 0.451 | 1347.1 | 6.657
